Source: patent publication US9586956B2, “Isoquinoline and naphthyridine derivatives” (Genentech, Inc., priority 2012, dated 2017)

Target: T1, purified human MAP4K4 kinase domain (Homo sapiens, UniProt O95819)
T1 construct: purified human MAP4K4 kinase domain
Test: MAP4K4 Inhibition Assay Protocol No. 1 (Caliper LabChip, moesin-derived peptide phosphorylation)
Type: biochemical
Details: Assay 1; 1 nM enzyme, 10 uM ATP, 45 min
Experimental: The kinase activity of purified human MAP4K4 kinase domain was measured by monitoring the phosphorylation of a peptide substrate derived from moesin protein (Leu-Gly-Arg-Asp-Lys-Tyr-Lys-Thr-Leu-Arg-Gln-Ile-Arg-Gln) fluorescently labeled on the N-terminus with 5-carboxyfluorescein using the Caliper LabChip technology (Caliper Life Sciences, Hopkinton, Mass.). To determine inhibition constants (IC50), compounds were serially diluted in DMSO and added to 10 uL kinase reactions containing 1 nM purified MAP4K4 enzyme, 1 uM peptide substrate, 10 uM ATP, 10 mM MgCl2, 1 mM EGTA, 50 mM Hepes pH 7.2, 1 mM DTT, 0.01% Triton X-100, and 2% DMSO. Reactions were incubated at room temperature in Perkin Elmer Proxiplates for 45 minutes and stopped by the addition of 10 uL of an EDTA-containing solution (50 mM Hepes pH 7.2, 40 mM EDTA, 0.02% Triton X-100). The fraction of phosphorylated peptide was determined as a fraction of total peptide substrate using the Caliper Lab Chip 3000 according to the manufacturer's instructions. IC50 values were determined using the four-parameter non-linear fit model.

T1 sequence (O95819 25-289 limits assumed): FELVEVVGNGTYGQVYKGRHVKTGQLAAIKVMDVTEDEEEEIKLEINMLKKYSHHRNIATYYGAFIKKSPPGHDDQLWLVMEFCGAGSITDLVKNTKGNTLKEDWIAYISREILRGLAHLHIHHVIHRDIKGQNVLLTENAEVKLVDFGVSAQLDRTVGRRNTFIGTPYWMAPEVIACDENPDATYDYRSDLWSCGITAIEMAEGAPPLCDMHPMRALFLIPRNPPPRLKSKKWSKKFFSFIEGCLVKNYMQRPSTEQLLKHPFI

Row | Compound | IC50 [µM]
1 | Cc1ncccc1NC(=O)c1cnc(N)c2cc(-c3cccc(F)c3)ccc12 [Example 105, 1-amino-7-(3-fluorophenyl)-N-(2-methyl-3-pyridyl) isoquinoline-4-carboxamide] | 0.0377
2 | Nc1ncc(C(=O)NCC2CCOC2)c2ccc(-c3cccc(F)c3)cc12 (centres unmarked) [Example 59, 1-amino-7-(3-fluorophenyl)-N-(tetrahydrofuran-3-ylmethyl)isoquinoline-4-carboxamide] | 0.0999
3 | Nc1ncc(C(=O)NCCN2CCCC2)c2ccc(-c3cccc(F)c3)cc12 [Example 47, 1-amino-7-(3-fluorophenyl)-N-(2-pyrrolidin-1-ylethyl)isoquinoline-4-carboxamide] | 1.6
4 | COc1ccc(NC(=O)c2cnc(N)c3cc(-c4cccc(F)c4)ccc23)cc1 [Example 75, 1-amino-7-(3-fluorophenyl)-N-(4-methoxyphenyl) isoquinoline-4-carboxamide] | 0.0148
5 | CN(C)CCNC(=O)c1cnc(N)c2cc(-c3cccc(F)c3)ccc12 [Example 46, 1-amino-N-[2-(dimethylamino)ethyl]-7-(3-fluorophenyl) isoquinoline-4-carboxamide] | 2.4
6 | Nc1ncc(C(=O)NCc2ccccn2)c2ccc(-c3cccc(F)c3)cc12 [Example 96, 1-amino-7-(3-fluorophenyl)-N-(2-pyridylmethyl) isoquinoline-4-carboxamide] | 0.179
7 | Nc1ncc(C(=O)NCCS(=O)(=O)N2CCCC2)c2ccc(-c3cccc(F)c3)cc12 [Example 53, 1-amino-7-(3-fluorophenyl)-N-(2-pyrrolidin-1-ylsulfonylethyl) isoquinoline-4-carboxamide] | 0.388
8 | Nc1ncc(C(=O)Nc2cccnc2)c2ccc(-c3cccc(F)c3)cc12 [Example 107, 1-amino-7-(3-fluorophenyl)-N-(3-pyridyl)isoquinoline-4-carboxamide] | 0.0124
9 | Nc1ncc(C(=O)NCc2cnccn2)c2ccc(-c3cccc(F)c3)cc12 [Example 89, 1-amino-7-(3-fluorophenyl)-N-(pyrazin-2-ylmethyl) isoquinoline-4-carboxamide] | 0.231
10 | Nc1ncc(C(=O)Nc2ccncc2)c2ccc(-c3cccc(F)c3)cc12 [Example 106, 1-amino-7-(3-fluorophenyl)-N-(4-pyridyl)isoquinoline-4-carboxamide] | 0.0224
11 | Nc1ncc(C(=O)NCCN2CCC(O)CC2)c2ccc(-c3cccc(F)c3)cc12 [Example 69, 1-amino-7-(3-fluorophenyl)-N-[2-(4-hydroxy-1-piperidyl)ethyl] isoquinoline-4-carboxamide] | 0.35
12 | NC(=O)CNC(=O)c1cnc(N)c2cc(-c3cccc(F)c3)ccc12 [Example 103, 1-amino-N-(2-amino-2-oxo-ethyl)-7-(3-fluorophenyl) isoquinoline-4-carboxamide] | 0.115
13 | Nc1ncc(C(=O)Nc2ccccc2)c2ccc(-c3cccc(F)c3)cc12 [Example 62, 1-amino-7-(3-fluorophenyl)-N-phenyl-isoquinoline-4-carboxamide] | 0.0338
14 | NC(=O)c1cnc(N)c2cc(-c3cccc(F)c3)ccc12 [Example 66, 1-amino-7-(3-fluorophenyl) isoquinoline-4-carboxamide] | 0.0327
15 | CC(C)NC(=O)c1cnc(N)c2cc(-c3cccc(F)c3)ccc12 [Example 102, 1-amino-7-(3-fluorophenyl)-N-isopropyl-isoquinoline-4-carboxamide] | 0.135
16 | NC(=O)c1nc(CNC(=O)c2cnc(N)c3cc(-c4cccc(F)c4)ccc23)no1 [Example 61, 3-[[[1-amino-7-(3-fluorophenyl)isoquinoline-4-carbonyl]amino]methyl]-1,2,4-oxadiazole-5-carboxamide] | 0.0368
17 | NC(=O)C1CCN(C(=O)c2cnc(N)c3cc(-c4cccc(F)c4)ccc23)CC1 [Example 50, 1-[1-amino-7-(3-fluorophenyl)isoquinoline-4-carbonyl] piperidine-4-carboxamide] | 1.5

Row | Compound | IC50 [µM]
18 | CC(=O)N1CC(NC(=O)c2cnc(N)c3cc(-c4cccc(F)c4)ccc23)C1 [Example 9, N-(1-acetylazetidin-3-yl)-1-amino-7-(3-fluorophenyl)isoquinoline-4-carboxamide] | 0.0506
19 | Nc1ncc(C(=O)Nc2ccc(CO)cc2)c2ccc(-c3cccc(F)c3)cc12 [Example 63, 1-amino-7-(3-fluorophenyl)-N-[4-(hydroxymethyl)phenyl]isoquinoline-4-carboxamide] | 0.0127
20 | Nc1ncc(C(=O)NCCN2CCOCC2)c2ccc(-c3cccc(F)c3)cc12 [Example 45, 1-amino-7-(3-fluorophenyl)-N-(2-morpholinoethyl) isoquinoline-4-carboxamide] | 0.0841
21 | 1-amino-7-(3-fluorophenyl)- N-(4-hydroxycyclohexyl) isoquinoline-4-carboxamide [Example 113] | 0.0565
22 | Nc1ncc(C(=O)NC2CNC2)c2ccc(-c3cccc(F)c3)cc12 [Example 124, 1-amino-N-(azetidin-3-yl)-7-(3-fluorophenyl) isoquinoline-4-carboxamide] | 0.4
23 | CC(C)(N)CNC(=O)c1cnc(N)c2cc(-c3cccc(F)c3)ccc12 [Example 78, 1-amino-N-(2-amino-2-methyl-propyl)-7-(3-fluorophenyl) isoquinoline-4-carboxamide] | 2.4
24 | Nc1ncc(C(=O)NCCO)c2ccc(-c3cccc(F)c3)cc12 [Example 109, 1-amino-7-(3-fluorophenyl)-N-(2-hydroxyethyl) isoquinoline-4-carboxamide] | 0.0774
25 | CCC(=O)N1CC(NC(=O)c2cnc(N)c3cc(-c4cccc(F)c4)ccc23)C1 [Example 125, 1-amino-7-(3-fluorophenyl)-N-(1-propanoylazetidin-3-yl)isoquinoline-4-carboxamide] | 0.0503
26 | C[C@H](NC(=O)c1cnc(N)c2cc(-c3cccc(F)c3)ccc12)C(N)=O [Example 85, 1-amino-N-[(1S)-2-amino-1-methyl-2-oxo-ethyl]-7-(3-fluorophenyl) isoquinoline-4-carboxamide] | 0.363
27 | C[C@@H](NC(=O)c1cnc(N)c2cc(-c3cccc(F)c3)ccc12)C(N)=O [Example 84, 1-amino-N-[(1R)-2-amino-1-methyl-2-oxo-ethyl]-7-(3-fluorophenyl) isoquinoline-4-carboxamide] | 0.557
28 | NC(=O)C1CCCN(C(=O)c2cnc(N)c3cc(-c4cccc(F)c4)ccc23)C1 (centres unmarked) [Example 51, 1-[1-amino-7-(3-fluorophenyl)isoquinoline-4-carbonyl] piperidine-3-carboxamide] | 2
29 | 1-amino-N-[2-(3,5-dimethyl- pyrazol-1-yl)ethyl]-7- (3-fluorophenyl) isoquinoline-4-carboxamide [Example 79] | 1.4
30 | Nc1ncc(C(=O)NCCC(=O)N2CCOCC2)c2ccc(-c3cccc(F)c3)cc12 [Example 110, 1-amino-7-(3-fluorophenyl)-N-(3-morpholino-3-oxo-propyl)isoquinoline-4-carboxamide] | 0.403
31 | CC(O)CNC(=O)c1cnc(N)c2cc(-c3cccc(F)c3)ccc12 (centres unmarked) [Example 119, 1-amino-7-(3-fluorophenyl)-N-(2-hydroxypropyl) isoquinoline-4-carboxamide] | 0.0996
32 | Nc1ncc(C(=O)NC(CO)CO)c2ccc(-c3cccc(F)c3)cc12 [Example 114, 1-amino-7-(3-fluorophenyl)-N-[2-hydroxy-1-(hydroxy-methyl)ethyl]isoquinoline-4-carboxamide] | 0.0386
33 | CC(=O)N1CCN(C(=O)c2cnc(N)c3cc(-c4cccc(F)c4)ccc23)CC1 [Example 49, 1-[4-[1-amino-7-(3-fluorophenyl)isoquinoline-4-carbonyl]piperazin-1-yl] ethanone] | 2.6
34 | Nc1ncc(C(=O)NCCN2CCCC2=O)c2ccc(-c3cccc(F)c3)cc12 [Example 77, 1-amino-7-(3-fluorophenyl)-N-[2-(2-oxopyrrolidin-1-yl)ethyl]isoquinoline-4-carboxamide] | 0.507

Target: T1, purified human MAP4K4 kinase domain
Test: MAP4K4 Inhibition Assay Protocol No. 2 (Z'-LYTE FRET)
Type: biochemical
Details: Assay 2; 1 nM enzyme, 10 uM ATP, 60 min
From the text: The kinase activity of purified human MAP4K4 kinase domain was monitored using Z'-LYTE™ technology from Invitrogen to determine inhibition constants (IC50) of small molecule inhibitors. The Z'-LYTE™ biochemical assay employs a fluorescence-based, coupled-enzyme format and is based on the differential sensitivity of phosphorylated and non-phosphorylated peptides to proteolytic cleavage. In the primary reaction, the kinase transfers the gamma-phosphate of ATP to a single tyrosine, serine or threonine residue in a synthetic FRET-peptide. In the secondary reaction, a site-specific protease recognizes and cleaves non-phosphorylated FRET-peptides. Phosphorylation of FRET-peptides suppresses cleavage by the Development Reagent. Cleavage disrupts FRET between the donor (i.e., coumarin) and acceptor (i.e., fluorescein) fluorophores on the FRET-peptide, whereas uncleaved, phosphorylated FRET-peptides maintain FRET. To determine inhibition constants (IC50), compounds were serially diluted in DMSO and added to 10 uL kinase reactions containing 1 nM purified MAP4K4 enzyme, 2 uM ser/thr7 Z'-LYTE™ substrate, 10 uMATP, 50 mM Hepes (pH 7.5), 10 mM MgCl2, 1 mM EGTA, 0.01% Brij-35, and 2% DMSO. Reactions were incubated at room temperature in Corning Black 384 well plates (Corning#3573) for 60 minutes and stopped by the addition of 5 uL of Z'-LYTE™ development reagent A and incubated at room temp for 60 minutes. The plate is then analyzed on Perkin Elmer Envision by FRET mode. The high ratio of coumarin/fluorescein represents 0% phosphorylation rate while low ratio of coumarin/fluorescein represents 100% phosphorylation rate. The following equations are used to determine extent of peptide phosphorylation or inhibition: […]

Row | Compound | IC50 [µM]
35 | CCOC(=O)c1cnc(N)c2nc(-c3ccc(OC)cc3)ccc12 [Example 150, ethyl 8-amino-2-(4-methoxy-phenyl)-1,7-naphthyridine-5-carboxylate] | 0.0212
